Half-life, CLint and Ratio data for one compound are collected here from ChEMBL document CHEMBL6114955, “Probing into the plasma stability and microsomal stability of thiol-based prodrug derivatives: Using IYS-15, an HDAC inhibitor as the model thiol” (Bioorg Med Chem, 2025).

The structures appear in SMILES notation.

The term half-life denotes the time in which the quantity being followed falls by half.

The nature of series [1]: Metabolic stability in human liver microsomes assessed as half life in presence of NADPH measured upto 60 mins in presence of 2.5 mM ABT cytochrome P450 inhibitor by LC-MS/MS analysis. The class given is ADME, Microsome. The settings on record: with ABT (cytochrome P450 inhibitor).
Series [2] is described as follows: Metabolic stability in human liver microsomes assessed as intrinsic clearance measured per mg of protein in presence of NADPH measured upto 60 mins in presence of 10 uM sulfaphenazole by LC-MS/MS analysis. The class given is ADME, Microsome. Particulars: 1 h. A general note: Liver microsomes are vesicles of endoplasmic reticulum, rich in cytochrome P450 enzymes.

A short description of series [3]: Stability in human plasma assessed as half life at pH 7.4 measured upto 5 hrs by LC-MS/MS analysis. In kind it is ADME, cell-free.
A short description of series [4]: Metabolic stability in human liver microsomes assessed as intrinsic clearance measured per mg of protein in presence of NADPH measured upto 60 mins in presence of 8 uM quinidine by LC-MS/MS analysis. Particulars: 1 h. In kind it is ADME, Microsome.
Series [5] can be described thus: Metabolic stability in human liver microsomes assessed as intrinsic clearance measured per mg of protein in presence of NADPH measured upto 60 mins in presence of 2 uM ticlopidine by LC-MS/MS analysis. In kind it is ADME, Microsome. The settings on record: 1 h.
Series [6] can be described thus: Metabolic stability in human liver microsomes assessed as half life in presence of NADPH measured upto 60 mins in presence of 5 mM BNPP carboxylesterase inhibitor by LC-MS/MS analysis. In kind it is ADME, Microsome. Particulars: with BNPP (carboxylesterase inhibitor).
Series [7] in a line: Metabolic stability in human liver microsomes assessed as half life in presence of NADPH measured upto 60 mins in presence of 2 uM ticlopidine by LC-MS/MS analysis. The class given is ADME, Microsome. The settings on record: with ticlopidine.
Series [8] is described as follows: Metabolic stability in human liver microsomes assessed as half life in presence of NADPH measured upto 60 mins by LC-MS/MS analysis. In kind it is ADME, Microsome.
The nature of series [9]: Metabolic stability in human liver microsomes assessed as half life in presence of NADPH measured upto 60 mins in presence of 50 uM furafylline by LC-MS/MS analysis. The class given is ADME, Microsome. Particulars: with furafylline.
Series [10] is described as follows: Metabolic stability in human liver microsomes assessed as half life in presence of NADPH measured upto 60 mins in presence of 2 uM ketoconazole by LC-MS/MS analysis. The class given is ADME, Microsome. Particulars: with ketoconazole.
Series [11] can be described thus: Metabolic stability in human liver microsomes assessed as half life in presence of NADPH measured upto 60 mins in presence of 10 uM sulfaphenazole by LC-MS/MS analysis. In kind it is ADME, Microsome. The settings on record: with sulfaphenazole.
Series [12] is described as follows: Ratio of half life in human liver microsomes in presence of BNPP to t1/2 in human liver microsomes absence of BNPP. The class given is ADME, Microsome.
Series [13] in a line: Metabolic stability in human liver microsomes assessed as intrinsic clearance measured per mg of protein in presence of NADPH measured upto 60 mins in presence of 50 uM furafylline by LC-MS/MS analysis. The class given is ADME, Microsome. Particulars: 1 h.
Series [14] can be described thus: Metabolic stability in human liver microsomes assessed as half life in presence of NADPH measured upto 60 mins in presence of 10 uM montelukast by LC-MS/MS analysis. In kind it is ADME, Microsome. Particulars: with montelukast.
Series [15] in a line: Metabolic stability in human liver microsomes assessed as intrinsic clearance measured per mg of protein in presence of NADPH measured upto 60 mins in presence of 2 uM ketoconazole by LC-MS/MS analysis. In kind it is ADME, Microsome. Particulars: 1 h.
Series [16] can be described thus: Ratio of half life in human liver microsomes in presence of ABT to t1/2 in human liver microsomes absence of ABT. In kind it is ADME, Microsome.
Series [17] in a line: Metabolic stability in human liver microsomes assessed as half life in presence of NADPH measured upto 60 mins in presence of 8 uM quinidine by LC-MS/MS analysis. In kind it is ADME, Microsome. The settings on record: with quinidine.
Series [18] can be described thus: Metabolic stability in human liver microsomes assessed as intrinsic clearance measured per mg of protein in presence of NADPH measured upto 60 mins in presence of 10 uM montelukast by LC-MS/MS analysis. In kind it is ADME, Microsome. Particulars: 1 h.

For `CC(=O)NCSCCCCCCC(=O)Nc1nc(-c2ccc(F)cc2)cs1`, the half-life in series [1] was 65.8 min; in series [3], over 300 min; in series [6], 81.4 min; in series [7], 8.09 min; in series [8], 6.81 min; in [9] it was 8.31 min. The half-life is 22.5 min in [10], 9.66 min in series [11], 14 min in series [14] and 8.68 min in series [17]. Further, the CLint in series [2] came to 218 µL/min/mg; in [4], 243 µL/min/mg; in series [5], 260 µL/min/mg; in series [13], 253 µL/min/mg; in [15], 93 µL/min/mg; in [18] it was 150 µL/min/mg. Moreover, the results for the Ratio in series [12] and in series [16] were 9.53 and 7.71, respectively.
